# Assay results published in BindingDB's records for doi:10.1021/cb5001586 (The Broad Institute , Cambridge, Massachusetts 02142, …, 2014).
# Target: Acyl-homoserine lactone acylase PvdQ [A190E,F674L] (Pseudomonas aeruginosa, UniProt Q9I194, A190E/F674L)
# Assay: PvdQ IC50 Assay
# Procedure: The assay was performed with nine compound concentrations that ranged from 3 nM to 19.5 µM with PvdQ concentration of 20 nM. The positive control, isopropyl dodecylfluorophosphonate (IDFP), was added in 24 selective wells to a final concentration of 200 µM. The assay plates were initially read at time = 0 and then incubated for 60 min at RT. The plates were read again at time = 60 min.
# Chain of Acyl-homoserine lactone acylase PvdQ [A190E,F674L] (Q9I194 whole entry, looked up, stated change not applied): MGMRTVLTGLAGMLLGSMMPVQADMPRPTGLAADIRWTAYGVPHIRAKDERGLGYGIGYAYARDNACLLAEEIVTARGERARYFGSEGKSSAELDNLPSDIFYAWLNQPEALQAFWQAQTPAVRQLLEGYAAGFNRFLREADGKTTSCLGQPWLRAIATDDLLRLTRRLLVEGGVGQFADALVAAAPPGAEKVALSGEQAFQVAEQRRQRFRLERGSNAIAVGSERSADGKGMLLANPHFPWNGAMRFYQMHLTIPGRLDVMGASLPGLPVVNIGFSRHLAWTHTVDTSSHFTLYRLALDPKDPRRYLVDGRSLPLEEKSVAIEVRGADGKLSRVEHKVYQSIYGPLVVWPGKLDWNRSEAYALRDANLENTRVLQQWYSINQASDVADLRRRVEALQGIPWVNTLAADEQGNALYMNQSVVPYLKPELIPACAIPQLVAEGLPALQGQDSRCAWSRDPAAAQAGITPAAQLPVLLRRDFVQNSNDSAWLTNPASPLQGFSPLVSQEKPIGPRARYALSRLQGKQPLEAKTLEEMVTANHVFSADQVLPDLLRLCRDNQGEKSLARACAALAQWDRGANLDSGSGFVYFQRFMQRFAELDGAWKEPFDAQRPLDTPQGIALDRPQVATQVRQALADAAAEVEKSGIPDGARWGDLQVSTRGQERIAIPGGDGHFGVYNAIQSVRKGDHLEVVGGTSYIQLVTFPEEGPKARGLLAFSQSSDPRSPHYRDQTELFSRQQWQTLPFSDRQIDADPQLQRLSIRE
row,SMILES,IC50
1,N#CC(c1ccc(Cl)cc1)c1ncccc1Cl (stereo not given) [2-(4-Chlorophenyl)-2-(3-chloropyridin-2-yl) acetonitrile (15)],10 nM
2,CC(C#N)(c1ccc(Cl)cc1)c1ccc(C(F)(F)F)cn1 (stereo not given) [2-(4-Chlorophenyl)-2-(5-(trifluoromethyl)pyridin-2-yl)propanenitrile (54)],1100 nM
3,COCCOCCC(C#N)c1ccc(Cl)cc1 (stereo not given) [2-(4-Chlorophenyl)-4-(2-methoxyethoxy)butanenitrile (42)],4700 nM
4,N#Cc1cccc(C(C#N)c2ccc(Cl)cc2)n1 (stereo not given) [6-((4-Chlorophenyl)(cyano)methyl)picolinonitrile (17)],180 nM
5,N#Cc1ccc(C(C#N)c2ccc(Cl)cc2)nc1 (stereo not given) [6-((4-Chlorophenyl)(cyano)methyl)nicotinonitrile (23)],2500 nM
6,N#CC(c1cccc(Cl)n1)c1ccccc1OC(F)(F)F (stereo not given) [2-(6-Chloropyridin-2-yl)-2-(2-(trifluoromethoxy)-phenyl)acetonitrile (11)],1700 nM
7,COCCC(C#N)c1ccc(F)cc1 (stereo not given) [2-(4-Fluorophenyl)-4-methoxybutanenitrile (47)],290 nM
8,Clc1ccc(C(c2cccc(Cl)n2)c2nnn[nH]2)cc1 (stereo not given) [2-Chloro-6-((4-chlorophenyl)(1H-tetrazol-5-yl)-methyl)pyridine (52)],3400 nM
9,N#Cc1cccc(C(C#N)c2ccc(Cl)cc2F)n1 (stereo not given) [6-((4-Chloro-2-fluorophenyl)(cyano)methyl) picolinonitrile (30)],110 nM
10,N#CC(c1ccc(Cl)cc1)c1ccccn1 (stereo not given) [2-(4-Chlorophenyl)-2-(pyridin-2-yl)acetonitrile (24)],270 nM
11,N#Cc1cccc(C(C#N)c2ccc(F)cc2)n1 (stereo not given) [6-(Cyano(4-fluorophenyl)methyl)picolinonitrile (25)],130 nM
12,N#CC(c1cccc(Cl)n1)c1ccc(Cl)cc1F (stereo not given) [2-(4-Chloro-2-fluorophenyl)-2-(6-chloropyridin-2-yl) acetonitrile (13)],60 nM
13,N#CC(c1ccc(C(F)(F)F)cc1)c1cccc(C(F)(F)F)n1 (stereo not given) [2-(4-(Trifluoromethyl)phenyl)-2-(6-(trifluoromethyl)pyridin-2-yl)acetonitrile (29)],140 nM
14,CCCCC(C#N)c1ccc(F)cc1 (stereo not given) [2-(4-Fluorophenyl)hexanenitrile (46)],320 nM
15,CCCCC(C#N)c1ccccn1 (stereo not given) [2-(Pyridin-2-yl)hexanenitrile (51)],8400 nM
16,N#CC(c1ccc(C(F)(F)F)cn1)c1ccc(Cl)cc1F (stereo not given) [2-(4-Chloro-2-fluorophenyl)-2-(5-(trifluoromethyl)-pyridin-2-yl)acetonitrile (31)],10 nM
17,CC(C)CC(C#N)c1ccc(Cl)cc1 (stereo not given) [2-(4-Chlorophenyl)-4-methylpentanenitrile (39)],290 nM
18,"N#CC(c1ccc(C(F)(F)F)c(Cl)n1)c1ccc(Cl)cc1Cl (stereo not given) [2-(6-Chloro-5-(trifluoromethyl)pyridin-2-yl)-2-(2,4-dichlorophenyl)acetonitrile (36)]",970 nM
19,CCCCC(C#N)c1ccc(Cl)cn1 (stereo not given) [2-(5-Chloropyridin-2-yl)hexanenitrile (49)],3800 nM
20,CCCCC(C#N)c1ccc(Cl)cc1 (stereo not given) [2-(4-Chlorophenyl)hexanenitrile (38)],1400 nM

row,SMILES,IC50
1,"N#CC(c1ccc(Cl)cc1Cl)c1ncccc1Cl (stereo not given) [2-(3-Chloropyridin-2-yl)-2-(2,4-dichlorophenyl) acetonitrile (35)]",210 nM
2,COCCC(C#N)c1ccc(Cl)cc1 (stereo not given) [2-(4-Chlorophenyl)-4-methoxybutanenitrile (41)],4800 nM
3,"N#CC(c1cccc(Cl)n1)c1ccc(Cl)cc1Cl (stereo not given) [2-(6-Chloropyridin-2-yl)-2-(2,4-dichlorophenyl) acetonitrile (12)]",250 nM
4,N#CC(c1ccc(C(F)(F)F)c(Cl)n1)c1ccc(Cl)cc1F (stereo not given) [2-(4-Chloro-2-fluorophenyl)-2-(6-chloro-5-(trifluoro-methyl)pyridin-2-yl)acetonitrile (32)],630 nM
5,CCCCC(C#N)c1ccc(C(F)(F)F)cc1 (stereo not given) [2-(4-(Trifluoromethyl)phenyl)hexanenitrile (48)],> 10000 nM
6,N#CC(c1ccc(C(F)(F)F)cc1)c1ccc(C(F)(F)F)c(Cl)n1 (stereo not given) [2-(6-Chloro-5-(trifluoromethyl)pyridin-2-yl)-2-(4-(trifluoromethyl)phenyl)acetonitrile (28)],2300 nM
7,N#CC(CC1CC1)c1ccc(Cl)cc1 (stereo not given) [2-(4-Chlorophenyl)-3-cyclopropylpropanenitrile (40)],540 nM
8,"N#Cc1ccc(C(C#N)c2ccc(Cl)cc2Cl)nc1 (stereo not given) [6-(Cyano(2,4-dichlorophenyl)methyl)nicotinonitrile (34)]",1800 nM
9,CCCC(C#N)c1ccc(Cl)cc1 (stereo not given) [2-(4-Chlorophenyl)pentanenitrile (37)],5900 nM
10,N#CC(c1ccc(Cl)cc1)c1ccc(Cl)cn1 (stereo not given) [2-(4-Chlorophenyl)-2-(5-chloropyridin-2-yl) acetonitrile (14)],130 nM
11,CCCCC(c1ccc(Cl)cc1)c1nnn[nH]1 (stereo not given) [5-(1-(4-Chlorophenyl)pentyl)-1H-tetrazole (53)],6700 nM
12,N#CC(c1ccc(Cl)cc1)c1ccc(C(F)(F)F)cn1 (stereo not given) [2-(4-Chlorophenyl)-2-(5-(trifluoromethyl)pyridin-2-yl)acetonitrile (20)],2400 nM
13,N#CC(c1ccc(Cl)cc1)c1ccc(C(F)(F)F)c(Cl)n1 (stereo not given) [2-(6-Chloro-5-(trifluoromethyl)pyridin-2-yl)-2-(4-chlorophenyl)acetonitrile (21)],620 nM
14,Cc1ccc(C(C#N)c2ccc(Cl)cc2)nc1C#N (stereo not given) [6-((4-Chlorophenyl)(cyano)methyl)-3-methyl picolinonitrile (22)],180 nM
15,N#CC(c1ccc(C(F)(F)F)cc1)c1cccc(Cl)n1 (stereo not given) [2-(6-Chloropyridin-2-yl)-2-(4-(trifluoromethyl)phenyl)acetonitrile (10)],390 nM
16,N#CC(c1ccc(F)cc1)c1ccc(C(F)(F)F)c(Cl)n1 (stereo not given) [2-(6-Chloro-5-(trifluoromethyl)pyridin-2-yl)-2-(4-fluorophenyl)acetonitrile (27)],740 nM
17,N#CC(c1ccc(Cl)cc1)c1cccc(C(F)(F)F)n1 (stereo not given) [2-(4-Chlorophenyl)-2-(6-(trifluoromethyl)pyridin-2-yl)acetonitrile (16)],10 nM
18,"N#Cc1cccc(C(C#N)c2ccc(Cl)cc2Cl)n1 (stereo not given) [6-(Cyano(2,4-dichlorophenyl)methyl)picolinonitrile (33)]",290 nM
19,"N#CC1c2ccc(Cl)cc2CCc2cccnc21 (stereo not given) [8-Chloro-6,11-dihydro-5H-benzo[5,6]cyclohepta[1,2-b]pyridine-11-carbonitrile (55)]",9100 nM
20,N#CC(c1ccc(F)cc1)c1cccc(C(F)(F)F)n1 (stereo not given) [2-(4-Fluorophenyl)-2-(6-(trifluoromethyl)pyridin-2-yl) acetonitrile (4)],20 nM
